Like-named read-outs stand apart in the source and are kept apart here.
Columns and labels:
hCA II = molecular target: T1, hCA II (Homo sapiens, UniProt P00918); test: stopped-flow CO2 hydration assay; assay type: biochemical
T1 construct: gene CA2; cytosolic isoform
Source text: (§1) stopped-flow CO2 hydration assay on hCA II

hCA I = molecular target: T2, hCA I (Homo sapiens, UniProt P00915); test: stopped-flow CO2 hydration assay; assay type: biochemical
T2 construct: gene CA1; cytosolic isoform
T2 sequence (P00915 2-261): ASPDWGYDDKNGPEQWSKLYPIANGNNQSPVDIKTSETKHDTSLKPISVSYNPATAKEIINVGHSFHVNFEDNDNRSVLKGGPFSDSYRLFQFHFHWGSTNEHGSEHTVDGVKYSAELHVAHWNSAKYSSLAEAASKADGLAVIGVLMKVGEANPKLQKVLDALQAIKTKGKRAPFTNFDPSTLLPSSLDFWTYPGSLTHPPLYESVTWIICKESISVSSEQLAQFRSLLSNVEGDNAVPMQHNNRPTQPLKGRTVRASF
Source text: stopped-flow CO2 hydration assay on hCA I

[1] = stopped-flow CO2 hydration assay; assay type: biochemical, Homo sapiens; settings: read-out: KI (nM) ^* / hCA I
Source text: as §1

CCOC(=O)c1cnc2ccccc2c1Nc1cccc(S(N)(=O)=O)c1 [6a, Ethyl 4-((3-sulphamoylphenyl)amino)quinoline-3-carboxylate] gave a Ki (hCA II) of 223 nM and a Ki (hCA I) of 4230 nM.

Compound CCOC(=O)c1cnc2ccc(C)cc2c1Nc1cccc(S(N)(=O)=O)c1 [6b, Ethyl 6-methyl-4-((3-sulphamoylphenyl)amino)quinoline-3-carboxylate] has a Ki (hCA II) of 782 nM and a Ki (hCA I) of 6640 nM.

Compound CCOC(=O)c1cnc2ccc(OC)cc2c1Nc1cccc(S(N)(=O)=O)c1 [6c, Ethyl 6-methoxy-4-((3-sulphamoylphenyl)amino)quinoline-3-carboxylate] has a Ki (hCA II) of 175 nM and a Ki (hCA I) of 966 nM.

Work on CCOC(=O)c1cnc2ccc(Br)cc2c1Nc1cccc(S(N)(=O)=O)c1 [6d, Ethyl 6-bromo-4-((3-sulphamoylphenyl)amino)quinoline-3-carboxylate] yielded a Ki (hCA II) of 3590 nM and a Ki (hCA I) of 9090 nM.

Compound CCOC(=O)c1cnc2cc(Cl)c(F)cc2c1Nc1cccc(S(N)(=O)=O)c1 [6e, Ethyl 7-chloro-6-fluoro-4-((3-sulphamoylphenyl)amino)quinoline-3-carboxylate] has a Ki (hCA II; CO2 […], […] Hepes pH […] Na2SO4, […] min preincubation at room temperature) of 83.3 nM and a Ki (hCA I) of 7600 nM.

In the case of CCOC(=O)c1cnc2cc(Cl)cc(Cl)c2c1Nc1cccc(S(N)(=O)=O)c1 [6f, Ethyl 5,7-dichloro-4-((3-sulphamoylphenyl)amino)quinoline-3-carboxylate], the Ki [1] was > 10000 nM and the Ki (hCA I) was > 10000 nM.

For CCOC(=O)c1cnc2cc(Cl)c(F)cc2c1Nc1cccc(S(=O)(=O)NC)c1 [compound 11, Ethyl 7-chloro-6-fluoro-4-((3-(N-methylsulphamoyl)phenyl)amino)quinoline-3-carboxylate], the Ki [1] was > 10000 nM and the Ki (hCA I) was > 10000 nM.

From article PMC6713088, “Synthesis and biological evaluation of novel 3-(quinolin-4-ylamino)benzenesulfonamides as carbonic anhydrase isoforms I and II inhibitors” (Journal of Enzyme Inhibition and Medicinal Chemistry, 2019)
